The values below come from ChEMBL document CHEMBL4118257, “Discovery of 2-(3,5-difluoro-4-methylsulfonaminophenyl)propanamides as potent TRPV1 antagonists” (Bioorg Med Chem Lett, 2018).

Molecules are shown by their SMILES.

Series [1] concerns the target T1, Transient receptor potential cation channel subfamily V member 1 (Homo sapiens, UniProt Q8NER1). Nature of the series: Antagonist activity at recombinant human TRPV1 expressed in CHOK1 cells assessed as reduction in capsaicin-induced Ca2+ flux after 15 mins by fluo-4-based FLIPR assay. It counts as cell-based. In general terms: Calcium flux is commonly read through the fluorescence of an indicator in the cells.

Series [2] relates to Rattus norvegicus. Nature of the series: In vivo antagonist activity at TRPV1 in rat assessed as reduction in capsaicin-induced hypothermia at 10 mg/kg, po relative to control. It counts as functional.
Series [3] deals with Rattus norvegicus. Nature of the series: In vivo antagonist activity at TRPV1 in rat assessed as reduction in capsaicin-induced hypothermia at 3 mg/kg, po relative to control. In kind it is functional.
Series [4] has as its target T1, Transient receptor potential cation channel subfamily V member 1. Nature of the series: Antagonist activity at recombinant human TRPV1 expressed in CHOK1 cells assessed as reduction in temperature-induced Ca2+ flux after 15 mins at 45 degC by fluo-4-based FLIPR assay. In kind it is cell-based.
Series [5] concerns the target Transient receptor potential cation channel subfamily V member 1 (Rattus norvegicus, UniProt O35433). Nature of the series: Antagonist activity at recombinant rat TRPV1 expressed in HEK293 cells assessed as reduction in capsaicin-induced Ca2+ flux preincubated for 3 mins followed by capsaicin addition measured by calcium 4-dye based FLIPR assay. It counts as cell-based.

The target of series [6] is T1, Transient receptor potential cation channel subfamily V member 1. Nature of the series: Antagonist activity at recombinant human TRPV1 expressed in CHOK1 cells assessed as reduction in low pH-induced Ca2+ flux after 15 mins by fluo-4-based FLIPR assay. It counts as cell-based.
For series [7], the system named is Mus musculus. Nature of the series: Analgesic activity in formalin-induced pain mouse model assessed reduction in pain response at 3 mg/kg, iv measured at 20 to 30 mins post administration by formalin test relative to control. It counts as functional.
Series [8] concerns Mus musculus. Nature of the series: Toxicity in formalin-induced pain mouse model assessed as hyperthermia at 10 mg/kg, po. To be noted: in vivo. It counts as organism-based.

T1 sequence (Q8NER1 whole entry): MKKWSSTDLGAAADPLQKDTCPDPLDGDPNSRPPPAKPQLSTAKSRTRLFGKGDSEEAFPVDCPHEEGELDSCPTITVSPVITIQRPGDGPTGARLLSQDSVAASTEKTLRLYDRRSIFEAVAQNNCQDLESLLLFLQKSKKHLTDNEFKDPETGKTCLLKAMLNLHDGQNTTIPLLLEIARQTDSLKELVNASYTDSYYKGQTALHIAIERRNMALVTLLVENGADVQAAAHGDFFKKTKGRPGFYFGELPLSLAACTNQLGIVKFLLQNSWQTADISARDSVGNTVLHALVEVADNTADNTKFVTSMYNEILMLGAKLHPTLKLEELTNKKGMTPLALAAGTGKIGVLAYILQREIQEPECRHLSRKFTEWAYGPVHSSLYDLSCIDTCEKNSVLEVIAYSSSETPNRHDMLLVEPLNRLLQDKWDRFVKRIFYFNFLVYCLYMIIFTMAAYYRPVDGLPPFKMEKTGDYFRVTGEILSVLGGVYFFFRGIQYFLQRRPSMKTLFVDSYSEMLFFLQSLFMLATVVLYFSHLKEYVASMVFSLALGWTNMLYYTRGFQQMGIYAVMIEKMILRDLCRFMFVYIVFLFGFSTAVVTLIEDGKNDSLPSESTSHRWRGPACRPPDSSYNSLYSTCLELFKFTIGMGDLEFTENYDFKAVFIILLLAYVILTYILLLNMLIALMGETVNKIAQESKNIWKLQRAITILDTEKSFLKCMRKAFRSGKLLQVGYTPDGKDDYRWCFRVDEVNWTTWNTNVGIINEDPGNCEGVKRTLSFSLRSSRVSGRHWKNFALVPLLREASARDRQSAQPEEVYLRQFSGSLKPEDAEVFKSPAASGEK
Sequence of Transient receptor potential cation channel subfamily V member 1 (Rattus norvegicus, UniProt O35433) (O35433 whole entry): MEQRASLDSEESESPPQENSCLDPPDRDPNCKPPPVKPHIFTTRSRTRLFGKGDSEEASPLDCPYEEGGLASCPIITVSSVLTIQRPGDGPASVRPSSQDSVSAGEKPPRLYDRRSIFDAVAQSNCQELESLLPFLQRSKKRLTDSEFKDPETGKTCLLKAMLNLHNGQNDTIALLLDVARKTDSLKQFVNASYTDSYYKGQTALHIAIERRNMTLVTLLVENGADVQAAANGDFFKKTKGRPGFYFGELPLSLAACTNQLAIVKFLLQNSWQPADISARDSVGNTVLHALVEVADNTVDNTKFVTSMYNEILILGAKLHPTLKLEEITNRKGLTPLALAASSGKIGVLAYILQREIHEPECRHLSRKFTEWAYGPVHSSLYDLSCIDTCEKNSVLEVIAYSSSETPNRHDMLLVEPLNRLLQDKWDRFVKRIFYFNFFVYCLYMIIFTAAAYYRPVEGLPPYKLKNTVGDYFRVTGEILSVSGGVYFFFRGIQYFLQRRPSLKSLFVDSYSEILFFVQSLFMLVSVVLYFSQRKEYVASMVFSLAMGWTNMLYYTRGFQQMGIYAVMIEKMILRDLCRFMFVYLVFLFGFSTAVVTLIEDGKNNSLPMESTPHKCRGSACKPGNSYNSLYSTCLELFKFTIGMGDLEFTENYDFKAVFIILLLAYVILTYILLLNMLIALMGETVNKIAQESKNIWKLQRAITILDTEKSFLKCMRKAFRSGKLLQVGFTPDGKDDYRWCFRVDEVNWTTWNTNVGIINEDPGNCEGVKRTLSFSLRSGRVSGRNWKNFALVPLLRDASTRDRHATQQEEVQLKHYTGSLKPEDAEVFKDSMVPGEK

For orientation: Ki means the dissociation constant of the complex between target and ligand, obtained from inhibition or displacement. In general, inhibition in vivo refers to the share of the control response that was lost under treatment. The IC50 is the concentration that gives 50% inhibition. On to `CC1CCN(c2nc(C(F)(F)F)ccc2CNC(=O)C(C)c2cc(F)c(NS(C)(=O)=O)c(F)c2)CC1` (stereo not drawn), for which the inhibition constant Ki is 0.2 nM in series [1] (read-out: Ki) and 0.1 nM in series [5]. In addition, in the series on Rattus norvegicus [2], the inhibition in vivo at 10 mg/kg amounted to 100%. Besides, the inhibition in vivo at 3 mg/kg in the series with Rattus norvegicus [3] came to 57%; in the series on Mus musculus [7], 43%. For the same molecule, the IC50 in series [4] was found to be 8.1 nM; in series [6], 8.7 nM. Besides, in the series on Mus musculus [8], the Activity result is recorded as “Toxic”.

With `COc1cc(C(C)C(=O)NCc2ccc(C(F)(F)F)nc2N2CCC(C)CC2)cc(OC)c1NS(C)(=O)=O` (stereo not drawn), the Ki in series [1] (read-out: Ki) was found to be 1.6 nM.

Consider `CC1CCN(c2nc(C(F)(F)F)ccc2CNC(=O)C(C)c2cc(F)c(NS(C)(=O)=O)c(Br)c2)CC1` (stereo not drawn), for which, in series [1] (read-out: Ki), the Ki stood at 0.7 nM.

For `CC1CCN(c2nc(C(F)(F)F)ccc2CNC(=O)C(C)c2ccc(NS(=O)(=O)C(F)(F)F)c(F)c2)CC1` (stereo not drawn), the Ki result in series [1] is recorded as “Not Active”.

For the molecule `CC1CCN(c2nc(C(F)(F)F)ccc2CNC(=O)C(C)c2ccc(NS(C)(=O)=O)c(Br)c2)CC1` (stereo not drawn), the inhibitory constant (Ki) in series [1] (read-out: Ki) turned out to be 3.2 nM.

Take `CC1CCN(c2nc(C(F)(F)F)ccc2CNC(=O)C(C)c2ccc(N(CC#N)S(C)(=O)=O)c(F)c2)CC1` (stereo not drawn): the Ki entry in series [1] is on record as “Not Active”.

On to `COc1cc(C(C)C(=O)NCc2ccc(C(F)(F)F)nc2N2CCC(C)CC2)cc(F)c1NS(C)(=O)=O` (stereo not drawn), for which the inhibitory constant (Ki) in series [1] (read-out: Ki) turned out to be 0.3 nM.

For the molecule `CC1CCN(c2nc(C(F)(F)F)ccc2CNC(=O)C(C)c2ccc(NS(C)(=O)=O)c(Cl)c2)CC1` (stereo not drawn), the inhibitory constant (Ki) in series [1] (read-out: Ki) came out at 2.3 nM.

On to `C=CC(=O)N(c1ccc(C(C)C(=O)NCc2ccc(C(F)(F)F)nc2N2CCC(C)CC2)cc1F)S(C)(=O)=O` (stereo not drawn), for which the Ki in series [1] (read-out: Ki) turned out to be 2.4 nM.

For the molecule `COc1cc(C(C)C(=O)NCc2ccc(C(F)(F)F)nc2N2CCC(C)CC2)ccc1NS(C)(=O)=O` (stereo not drawn), in series [1] (read-out: Ki), the inhibitory constant (Ki) is 0.8 nM.

As for `CC1CCN(c2nc(C(F)(F)F)ccc2CNC(=O)C(C)c2ccc(NS(N)(=O)=O)c(F)c2)CC1` (stereo not drawn), in series [1] (read-out: Ki), the inhibitory constant (Ki) amounted to 2.7 nM.
